# Reference: US11857560B2, “Pharmaceutical compositions comprising substituted nucleotides and nucleosides for treating viral infections” (priority 2013, dated 2024)
# Experiments:
# Cytotoxicity panel, CEM = conditions: human, CEM cells, Cytotoxicity (CC50 uM) CEM
# [1] = test system: HCV replicon 3a (GT1b/3a NS5B chimera); assay: microbe, parasite or virus in culture; type: cell-based; conditions: Hepatitis C virus, read-out: EC50 (μM) 3a (GT1b/3a NS5B chimera)
# [2] = test system: HCV replicon 2b (GT1b/2b NS5B chimera); assay: microbe, parasite or virus in culture; type: cell-based; conditions: Hepatitis C virus, read-out: EC50 (μM) 2b (GT1b/2b NS5B chimera)
# [3] = test system: HCV replicon 4a (GT1b/4a NS5B chimera); assay: microbe, parasite or virus in culture; type: cell-based; conditions: Hepatitis C virus, read-out: EC50 (μM) 4a (GT1b/4a NS5B chimera)
# [4] = Cytotoxicity panel, HepG2; conditions: human, HepG2 cells
# [5] = Cytotoxicity panel, Huh-7; conditions: human, Huh-7 cells, Cytotoxicity (CC50 uM) Huh-7, Huh-7
# Huh-7 cells = assay: Toxicity in Huh-7 cells (Dengue assay); conditions: read-out: CC50 uM; Cell Line Huh-7, pan-serotype Dengue table
# [6] = Toxicity in Huh-7 cells (Dengue assay); conditions: human, Huh-7 cells
# [7] = Toxicity in Vero cells (Dengue assay); conditions: African green monkey
# Dengue Type 2 [8] = assay: Anti-Dengue virus cytoprotection assay, Vero cells; conditions: read-out: Dengue Type 2 Vero Cells (EC50 uM)
# HepG2 = assay: Cytotoxicity panel, HepG2; conditions: read-out: Cytotoxicity (CC50 uM) HepG2; HepG2
# Dengue Type 2 [9] = assay: Anti-Dengue virus cytoprotection assay, Huh-7 cells; conditions: Huh-7, read-out: Dengue Type 2 Huh-7 Cells (EC50 uM)
# VZV = VZV replication assay; type: cell-based; conditions: Human alphaherpesvirus 3
# HIV = HIV infected PBMC assay; type: cell-based, HIV-1; conditions: Human immunodeficiency virus 1, PBMC
# Experimental: Fresh human peripheral blood mononuclear cells (PBMCs) were obtained from a commercial source (Biological Specialty) and were determined to be seronegative for HIV and HBV. Depending on the volume of donor blood received, the leukophoresed blood cells were washed several times with PBS. After washing, the leukophoresed blood was diluted 1:1 with Dulbecco's phosphate buffered saline (PBS) and layered over 15 mL of Ficoll-Hypaque density gradient in a 50 ml conical centrifuge tube. These tubes were centrifuged for 30 min at 600 g. Banded PBMCs were gently aspirated from the resulting interface and washed three times with PBS. […] After incubation, PBMCs were centrifuged and resuspended in tissue culture medium. The cultures were maintained until use by half-volume culture changes with fresh IL-2 containing tissue culture medium every 3 days. […]
# Following addition of test compound to the wells, 50 uL of a predetermined dilution of HIV virus (prepared from 4× of final desired in-well concentration) was added, and mixed well. […] After 7 days in culture, HIV-1 replication was quantified in the tissue culture supernatant by measurement of reverse transcriptase (RT) activity. […]
# Reverse Transcriptase Activity Assay—Reverse transcriptase activity was measured in cell-free supernatants using a standard radioactive incorporation polymerization assay. […]
# HBV = HBV replication assay; type: cell-based; conditions: Hepatitis B virus
# Experimental: Ten microliters of cell culture supernatant collected on the sixth day was diluted in qPCR dilution buffer (40 μg/mL sheared salmon sperm DNA) and boiled for 15 minutes. Quantitative real time PCR was performed in […] using an Applied Biosystems 7900HT Sequence Detection System and the supporting SDS 2.4 software. Five microliters (5 μL) of boiled DNA for each sample and serial 10-fold dilutions of a quantitative DNA standard were subjected to real time Q-PCR using Platinum Quantitative PCR SuperMix-UDG (Invitrogen) and specific DNA oligonucleotide primers (IDT, Coralville, […]) HBV-AD38-qFI (5′-[…] -3′) (SEQ ID NO: 1), HBV-AD38-qR1 (5′-AGT CCA AGA GTY CTC TTA TRY AAG ACC TT-3′) (SEQ ID NO: 2), and HBV-AD38-qPI (5′-FAM CCG TGT GCA/ZEN/[…] -3′BHQ1) (SEQ ID NO: 3) at a final concentration of 0.2 μM for each primer in a total reaction volume of 15 μL. The HBV DNA copy number in each sample was interpolated from the standard curve by the SDS.24 software and the data were imported into an Excel spreadsheet for analysis.
# HSV-1 = HSV-1 replication assay; type: cell-based; conditions: Human alphaherpesvirus 1
# [10] = Cytotoxicity in HepG2 cells (HBV assay); type: cell-based; conditions: human, HepG2.2.15 cells; beside HBV
# Experimental: The 50% cytotoxic concentration for the test materials are derived by measuring the reduction of the tetrazolium dye XTT in the treated tissue culture plates. XTT is metabolized by the mitochondrial enzyme […] to a soluble formazan product in metabolically active cells. […] The 2-4 hour incubation has been empirically determined to be within linear response range for XTT dye reduction with the indicated numbers of cells for each assay. […] Data were collected by Softmax 4.6 software and imported into an Excel spreadsheet for analysis.
# [11] = Cytotoxicity in MRC-5 cells (HCMV assay); type: cell-based; conditions: human, beside HCMV
# HCMV = HCMV replication assay; type: cell-based; conditions: Human betaherpesvirus 5
# Huh-7 = assay: Cytotoxicity panel, Huh-7; conditions: read-out: Cytotoxicity (CC50 uM) Huh-7; Huh-7
# Adenovirus = Adenovirus replication assay; type: cell-based; conditions: unidentified adenovirus
# [12] = Cytotoxicity in PBM cells (HIV assay); type: cell-based; conditions: human, peripheral blood mononuclear cells (PBMCs), PHA-P stimulated; beside HIV
# [13] = Cytotoxicity in Huh-7 cells (HSV-1 assay); type: cell-based; conditions: human, beside HSV-1
# [14] = Cytotoxicity in MRC-5 cells (VZV assay); type: cell-based; conditions: human, beside VZV
compound,measurement,setting,value
CC(C)OC(=O)[C@H](C)N[P@](=O)(OC[C@H]1O[C@@H](n2ccc(=O)[nH]c2=S)[C@](C)(O)C1O)Oc1ccccc1 (stereo partly shown) [ENUC-02023-1],CC50,"Cytotoxicity panel, CEM",> 400 µM
same,EC50,[1],0.0367 µM
same,EC50,[2],0.0445 µM
same,EC50,[3],0.0254 µM
same,CC50,[4],> 400 µM
same,CC50,[5],252 µM
CC(C)OC(=O)[C@H](C)N[P@](=O)(OC[C@H]1O[C@@H](n2ccc(=O)[nH]c2=S)[C@](C)(O)C1O)Oc1ccccc1 (stereo partly shown) [ENUC-02023],CC50,Huh-7 cells,> 100 µM
same,CC50,[6],> 100 µM
same,CC50,[7],> 100 µM
same,EC50,Dengue Type 2 [8],2.35 µM
same,CC50,HepG2,> 400 µM
same,EC50,Dengue Type 2 [9],5.62 µM
CC(C)OC(=O)[C@H](C)NP(=O)(OC[C@H]1O[C@@H](n2ccc(=O)[nH]c2=S)[C@](C)(O)C1O)Oc1ccccc1 (stereo partly shown) [ENUC-01911],EC50,VZV,> 100 µM
same,EC50,HIV,> 100 µM
same,EC50,HBV,> 100 µM
same,CC50,[6],> 100 µM
same,EC50,HSV-1,> 100 µM
same,CC50 at 6 days,[10],> 100 µM
same,CC50,[11],> 100 µM
same,EC50,HCMV,> 100 µM
same,CC50,Huh-7,> 400 µM
same,EC50,Adenovirus,> 100 µM
same,CC50 at 7 days,[12],> 100 µM
same,CC50,[13],> 100 µM
same,CC50,[14],> 100 µM
